Test results: patent US7414068B2, “Benzopyran derivatives substituted with secondary amines including tetrazole, method for the preparation thereof and pharmaceutical compositions containing them” (Dongbu Hannong Chemical Co., Ltd., priority 2002, dated 2008)

What was measured:
[1] = system: diabetic rats; experiment: Effect on motor nerve conduction velocity in diabetic rats; assay type: in vivo, rat; conditions: 50 mg/kg orally once a day
Experimental: Diabetes was induced with injection of Streptozotocin (65 mg/kg) in rats, then test compounds dissolved in 2 ml of media (physiological saline:ethanol:tween 80=1:1:1) were orally administrated once a day. Rats were anesthetized with pentotal, then the sciatic nerve was exposed to measure motor nerve conduction velocity. The nerve was stimulated at two points. The first stimulus electrode was inserted at proximal end, and second electrode stimulus electrode was inserted at the distal notch. The coaxia needle electrode was inserted into interdigitala muscle, then the muscle action potential induced by two points stimulation. The conduction velocity was calculated by dividing the distance between two stimulus points by the latency differences. Lipoic acid (100 mg/kg) was used in comparison with the compound of the present invention in recovery of impaired Motor Nerve Conduction Velocity (MNCV) in diabetic rats. The recovery (%) of Motor Nerve Conduction was calculated according to the following mathematical formula 1.

[2] = system: isolated ischemic rat heart; experiment: Cardioprotective effect in ischemic heart models of rats (Langendorff); conditions: 10 μM
In short: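 Langendorff-perfused male rat hearts (Krebs-Henseleit, 85 mmHg, 37 °C) pretreated 10 min with compound or vehicle (0.04% DMSO), then 30 min global ischemia and 30 min reperfusion. Read-outs: LVDP, HR, CF, rate-pressure product, time to contracture (first 5 mmHg EDP rise), LDH release.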

[3] = system: RAW 264.7 cells; experiment: Inhibitory effect on NO production (LPS, Griess reagent); assay type: cell-based, murine; conditions: Mus musculus, RAW264.7, 24 h, Addition 30 μM, LPS 1 μg/ml, read-out: Inihibition (%) of NO production
Experimental: Using RPMI1640 media supplemented with 10% fetal bovine serum (FBS), RAW 264.7 cells (obtained from American Type Culture Collection), a murine macrophage cell line, were cultured at 37° C. in a 5% CO2 incubator. The RAW 264.7 cells were harvested and cell density was adjusted to 5×10^5 cell/ml with a RPMI media supplemented with 0.5% FBS and plated at 5×10^4 cell/well to 96-well plate, which were then cultured for 20 hours in a CO2 incubator. After removal of the media, the cells were pre-treated for 1 hour with fresh media containing 30 μM. The test compounds were dissolved in DMSO and diluted to respective concentration in the media. In order to minimize DMSO effect on the nitric oxide formation by the RAW 264.7 cells in the walls, the media were allowed to contain DMSO at a concentration of 0.1% or less.
After completion of one-hour pre-treatment, Lipopolysaccharide (E. coli serotype 055:B5) was added to activate the cells at a final concentration of 1 μg/ml, which were maintained for 24 hours in a CO2 incubator. As a result of the activation of RAW 264.7 cells with LPS, NO was formed. The NO release into the media was in a form of nitrite (NO2^−) and quantitatively measured using the Griess reagent. A control group was treated only with vehicle instead of test compounds.
The inhibitory effect of the test compounds against NO production were determined as the reduction of NO quantity compared with that of the control group.

With `COC(OC)[C@@]1(C)Oc2ccc(N)cc2[C@H](N(Cc2nnn(C)n2)c2ccc(Cl)cc2)[C@H]1O` [Example 11, (2S,3R,4S)-6-amino-4-[N-(4-chlorophenyl)-N-(2-methyl-2H-tetrazol-5-ylmethyl)amino]-3-hydroxy-2-methyl-2-dimethoxymethyl-3,4-dihydro-2H-1-benzopyran] the “Recovery(%) of motor nerve conduction” value [1] was 45.8%, the MNCV ([1]; streptozotocin diabetic rats) was 54 m/s and the “EDP (mmHg)” value ([2]; after 30 min global ischemia and reperfusion) was 47.6 mmHg. For the same molecule, the “LDH (u/g)” value ([2]; reperfusion LDH release) was 16.5 u/g, the “LVDP X HR (%)” value ([2]; reperfusion, % of pre-treatment DP) was 24.8% and the “TTC” value ([2]; time to contracture during global ischemia) was 19.9 min. For the same molecule, the inhibition at 30 µM [3] was 27%.
